Assay results: PubChem BioAssay AID1963440 (Molecular Pharmacology Branch, DTP, NCI, 2024)

System: NCI-H1417 complex spheroids, growth % test/control
Test: Anticancer human tumor NCI-H1417 cell line growth inhibition [Asc];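 further: spheroids exposed to compounds for 7 days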;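 on viability, T/C: 100% = DMSO vehicle control wells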
Details: for IC50: curve of first compound; for viability, T/C: stronger effect = lower value
Description: Multicellular complex tumor spheroid response to apoptosis pathway targeting inhibitors Alrizomadlin, Pelcitoclax, and Dasminapant in combination with a variety of drugs and investigational agents in selected tumor cell lines
The MDM2 inhibitor alrizomadlin, the Bcl-2/Bcl-xL inhibitor pelcitoclax, and the IAPs inhibitor dasminapant were evaluated both individually and in combination with standard of care and investigational anticancer small molecules within a complex spheroid model of solid tumors. . Complex spheroids include a stromal component modeled by human endothelial cells (HUVEC) and fibroblasts modeled by human mesenchymal stem cells (MSCs). The concentration ranges selected for each drug and investigational agent were based upon clinically achievable concentrations if the clinical Cmax of the agent was known.
Compounds. The drugs and investigational agents: alrizomadlin (APG-115; NSC831270), pelcitoclax (APG-1252; NSC835773), dasminapant (APG-1387;NSC834197), TAK-243 (NSC785004), copanlisib (NSC809693), olaparib (NSC753686), talazoparib (NSC767125), cobimetinib (NSC 768068), eltanexor (KPT-8602, NSC 794443), abemaciclib (NSC 768073), sotorasib (NSC818433), adagrasib (NSC 831453), MRTX-1133 (NSC 836407), Iadademestat (ORY1001, NSC 806812), and RMC-4630 (NSC839698), were obtained from the NCI Developmental Therapeutics Program Chemical Repository. The FDA-approved anticancer drug set is available from the Developmental Therapeutics Program at https://dtp.cancer.gov/organization/dscb/obtaining/available plates.htm. […] The stock solutions were prepared in dimethyl sulfoxide (DMSO, Sigma-Aldrich, St. Louis, MO, cat. D2650) at 800-fold the tested concentration and stored at -70 degrees C prior to their use. All drugs and investigational agents were tested over a range starting from a high concentration at or near the clinical Cmax and decreasing in half-log increments. If the clinical Cmax for an agent had not been determined, the highest concentration tested was 10 microM.
The patient-derived cancer (PDC) cell lines include five colon adenocarcinomas: 186277-243-T-J2-PDC, 616215-338-R-J1-PDC, 439559-082-T-J2-PDC, 463943-066-T-J2-PDC, and 519858-162-T-J1-PDC; three pancreatic carcinomas: 323965-272-R-J2-PDC, 521955-158-R6-J3-PDC, and 521955-158-R2-J5-PDC; two uterine sarcomas: 327498-152-R-J2-PDC and 993429-296-R-J1-PDC; two rhabdomyosarcomas: 755483-174-R-J1-PDC and 772245-204-R-J1-PDC; two soft tissue sarcomas: 126254-015-R-J1-PDC and 494315-158-R-J1-PDC; two malignant fibrous histiocytomas: 317291-083-R-J1-PDC and 596521-263-R-J1-PDC; two breast carcinomas: 171881-019-R-J1-PDC and 885512-296-R-J2-PDC; and one ovarian carcinoma: 6556581-035-R-J-PDC were obtained from the NCI PDMR, (https://pdmr.cancer.gov). The established cell lines HSSY-2 synovial sarcoma (RRID:CVCL 8719), SYO-1 synovial sarcoma (RRID:CVCL_7146), MPNST malignant peripheral neural sheath tumor were obtained from the Sloan Kettering Institute. The following established cell lines were purchased from the American Type Culture Collection (ATCC, Manassas, VA), Sor the received from the NCI repository:, PANC-1 pancreatic carcinoma (CRL-1469, RRID:CVCL_0480), OVCAR-5 ovarian carcinoma (RRID:CVCL_1628), OVCAR-8 ovarian carcinoma (RRID:CVCL_1629), , MCF-7 breast carcinoma (CRL-12584, RRID:CVCL_0031), MDA-MB-231 breast carcinoma (CRL-12532, RRID:CVCL_0062), NCI-H1876 small cell lung carcinoma (CRL-5902, RRID:CVCL_1503), NCI-H510A small cell lung carcinoma (HTB-184, RRID:CVCL_1565), NCI-H1417 (CRL-5869, RRID:CVCL_1469), and NCI-H196 small cell lung carcinoma (CRL-5823, RRID:CVCL_1509). Dr. Peter Houghton (Greehey Children's Cancer Research Institute, University of Texas Health Science Center, San Antonio, TX) provided Rh-18 rhabdomyosarcoma (RRID:CVCL_1659). Pooled donor human umbilical vein endothelial cells (HUVEC, Lonza, cat. CC-2519) and human mesenchymal stem cells (hMSC, Lonza, cat. PT-2501) were purchased from Lonza (Walkersville, MD).
Cell Culture. […]

With `CNC(C)C(=O)NC1CN(S(=O)(=O)c2cccc(S(=O)(=O)N3CCC4CCC(C(=O)NC(c5ccccc5)c5ccccc5)N4C(=O)C(NC(=O)C(C)NC)C3)c2)CCC2CCC(C(=O)NC(c3ccccc3)c3ccccc3)N2C1=O` (stereo not given) + Cc1c(S(C)(=O)=O)c(-c2cc(F)cc(N3CCN(c4ccc(NS(=O)(=O)c5ccc(NC(CCN6CCC(C(=O)OCCCP(=O)(O)O)CC6)CSc6ccccc6)c(S(=O)(=O)C(F)(F)F)c5)cc4)CC3)c2)c(-c2ccc(Cl)cc2)n1C(C)C the IC50 (second compound 0.1 µM) was > 1 µM, the IC50 (second compound 0.316 µM) was < 0.00316 µM and the IC50 (second compound 1 µM) was < 0.00316 µM. The IC50 (second compound 3.16 µM) was < 0.00316 µM, the IC50 (second compound 10 µM) was < 0.00316 µM and the viability, T/C (second compound 0.1 µM, first compound 0.00316 µM) was 94.1%. It also gave a viability, T/C (second compound 0.1 µM, first compound 0.01 µM) of 95.3%, a viability, T/C (second compound 0.1 µM, first compound 0.0316 µM) of 80.2% and a viability, T/C (second compound 0.1 µM, first compound 0.1 µM) of 74.7%. The viability, T/C (second compound 0.1 µM, first compound 0.316 µM) was 84.6%, the viability, T/C (second compound 0.1 µM, first compound 1 µM) was 81.1% and the viability, T/C (second compound 0.316 µM, first compound 0.00316 µM) was 42.4%. It also gave a viability, T/C (second compound 0.316 µM, first compound 0.01 µM) of 47.4%, a viability, T/C (second compound 0.316 µM, first compound 0.0316 µM) of 47.6% and a viability, T/C (second compound 0.316 µM, first compound 0.1 µM) of 36.8%. For the same compound, the viability, T/C (second compound 0.316 µM, first compound 0.316 µM) was 38%, the viability, T/C (second compound 0.316 µM, first compound 1 µM) was 39.3% and the viability, T/C (second compound 1 µM, first compound 0.00316 µM) was 12.2%. The viability, T/C (second compound 1 µM, first compound 0.01 µM) was 10.3%, the viability, T/C (second compound 1 µM, first compound 0.0316 µM) was 9.05% and the viability, T/C (second compound 1 µM, first compound 0.1 µM) was 8.75%. The viability, T/C (second compound 1 µM, first compound 0.316 µM) was 4.64%, the viability, T/C (second compound 1 µM, first compound 1 µM) was 4.71% and the viability, T/C (second compound 3.16 µM, first compound 0.00316 µM) was 3.82%. For the same compound, the viability, T/C (second compound 3.16 µM, first compound 0.01 µM) was 2.79%, the viability, T/C (second compound 3.16 µM, first compound 0.0316 µM) was 2.43% and the viability, T/C (second compound 3.16 µM, first compound 0.1 µM) was 2.42%. It also gave a viability, T/C (second compound 3.16 µM, first compound 0.316 µM) of 2.07%, a viability, T/C (second compound 3.16 µM, first compound 1 µM) of 1.84% and a viability, T/C (second compound 10 µM, first compound 0.00316 µM) of 2.6%. It also gave a viability, T/C (second compound 10 µM, first compound 0.01 µM) of 1.96%, a viability, T/C (second compound 10 µM, first compound 0.0316 µM) of 3.22% and a viability, T/C (second compound 10 µM, first compound 0.1 µM) of 1.45%. For the same compound, the viability, T/C (second compound 10 µM, first compound 0.316 µM) was 1.71% and the viability, T/C (second compound 10 µM, first compound 1 µM) was 1.47%.

`CCN1C(C(=O)NC23CCC(C(=O)O)(CC2)CC3)C(c2cccc(Cl)c2F)C2(C(=O)Nc3cc(Cl)ccc32)C12CCCCC2` (stereo not given) + CNC(C)C(=O)NC1CN(S(=O)(=O)c2cccc(S(=O)(=O)N3CCC4CCC(C(=O)NC(c5ccccc5)c5ccccc5)N4C(=O)C(NC(=O)C(C)NC)C3)c2)CCC2CCC(C(=O)NC(c3ccccc3)c3ccccc3)N2C1=O was tested, and the IC50 (second compound 0.01 µM) was > 3 µM, the IC50 (second compound 0.0316 µM) was > 3 µM and the IC50 (second compound 0.1 µM) was > 3 µM. For the same compound, the IC50 (second compound 0.316 µM) was > 3 µM, the IC50 (second compound 1 µM) was > 3 µM and the viability, T/C (second compound 0.01 µM, first compound 0.00949 µM) was 105%. The viability, T/C (second compound 0.01 µM, first compound 0.03 µM) was 104%, the viability, T/C (second compound 0.01 µM, first compound 0.0949 µM) was 105% and the viability, T/C (second compound 0.01 µM, first compound 0.3 µM) was 99.7%. It also gave a viability, T/C (second compound 0.01 µM, first compound 0.949 µM) of 106%, a viability, T/C (second compound 0.01 µM, first compound 3 µM) of 120% and a viability, T/C (second compound 0.0316 µM, first compound 0.00949 µM) of 107%. It also gave a viability, T/C (second compound 0.0316 µM, first compound 0.03 µM) of 118%, a viability, T/C (second compound 0.0316 µM, first compound 0.0949 µM) of 106% and a viability, T/C (second compound 0.0316 µM, first compound 0.3 µM) of 86%. The viability, T/C (second compound 0.0316 µM, first compound 0.949 µM) was 101%, the viability, T/C (second compound 0.0316 µM, first compound 3 µM) was 96.2% and the viability, T/C (second compound 0.1 µM, first compound 0.00949 µM) was 103%. It also gave a viability, T/C (second compound 0.1 µM, first compound 0.03 µM) of 102%, a viability, T/C (second compound 0.1 µM, first compound 0.0949 µM) of 99.7% and a viability, T/C (second compound 0.1 µM, first compound 0.3 µM) of 88.6%. For the same compound, the viability, T/C (second compound 0.1 µM, first compound 0.949 µM) was 95.7%, the viability, T/C (second compound 0.1 µM, first compound 3 µM) was 120% and the viability, T/C (second compound 0.316 µM, first compound 0.00949 µM) was 105%. For the same compound, the viability, T/C (second compound 0.316 µM, first compound 0.03 µM) was 95.1%, the viability, T/C (second compound 0.316 µM, first compound 0.0949 µM) was 105% and the viability, T/C (second compound 0.316 µM, first compound 0.3 µM) was 102%. It also gave a viability, T/C (second compound 0.316 µM, first compound 0.949 µM) of 104%, a viability, T/C (second compound 0.316 µM, first compound 3 µM) of 108% and a viability, T/C (second compound 1 µM, first compound 0.00949 µM) of 110%. For the same compound, the viability, T/C (second compound 1 µM, first compound 0.03 µM) was 108%, the viability, T/C (second compound 1 µM, first compound 0.0949 µM) was 106% and the viability, T/C (second compound 1 µM, first compound 0.3 µM) was 108%. The viability, T/C (second compound 1 µM, first compound 0.949 µM) was 95.4% and the viability, T/C (second compound 1 µM, first compound 3 µM) was 106%.
